Results taken from patent US4910296A, “Medicaments containing alpha 1 thymosin fragments and having an immunostimulant action, and fragments of alpha 1 thymosin” (priority 1980, dated 1990).
Read-outs that look alike come from different tables or passages of the source. Residues, ends and D or L forms follow the SMILES beside them. No end group written: not given here.

Assays:
[1] = tested on: peripheral human lymphocytes; assay type: cell-based; details: for E-rosette number (%): cells blocked with α-amanitin = 0%, normal level without any addition = 100%, at optimum concentration; for Optimum concentr.: concentration giving the stated E-rosette number; for Relative number of E-rosettes (%): after inhibition with α-amanitin
From the text: (§1) The immunological test methods used were the E-rosette test according to Wara, Ammann et al. (N.Y. Acad. Sci. 249 (1975) 308 and N. Engl. J. Med. 292 (1975) 70) and the method of mixed lymphocyte culture, both methods involving additional inhibition of cellular RNS polymerase by alpha-amanitin. The E-rosette test is based on the fact that the percentage of E-rosette forming cells in peripheral human blood is a measure of the content of fully mature T-cells, which form with sheep's red blood cells characteristic aggregates which can be counted under the microscope.
For the performance of the E-rosette test, peripheral human lymphocytes are isolated by a gradient centrifugation. Their RNS polymerase is blocked by alpha-amanitin. […] This value is taken as 100% in a relative numerical scale, and after the Alpha-amanitin blockage it is taken to be 0%; see Table XII.

[2] = tested on: human peripheral lymphocytes; assay type: cell-based; details: for stimulation (+) / inhibition (-) of mixed lymphocyte culture: 1 μg fragment per ml, not blocked, culture without addition = 0%; for Stimulation (%) of allogenic mixed culture: 1 microgram thymosin α1 per ml
From the text: as §1
The test in mixed lymophocyte cultures is based on the fact that T-cells are made to proliferate by stimulation with allogenic antigens. For the performance of the test, the lymphocytes of donor A ("responder") are incubated with those of donor B ("stimulator") for 4 to 5 days. Then ^3 H-thymidin is added and the rate of proliferation is measured on the basis of the increasing radioactivity of the cell culture due to the installation of the radioactive material. Since both populations A and B might be made to proliferate, resulting in an unclear effect, population B is blocked with mitomycin C in all metabolical activities. This test is routinely used before organ transplants to determine the immunological compatibility of donor and receiver tissues.

Row | Compound | E-rosette number (%) [1] [%] | Optimum concentr. [1] [μm] | stimulation (+) / inhibition (-) of mixed lymphocyte culture ([2]; cell pair AB) | stimulation (+) / inhibition (-) of mixed lymphocyte culture ([2]; cell pair CD) | stimulation (+) / inhibition (-) of mixed lymphocyte culture ([2]; cell pair DC) | also measured
1 | TKDLKEKKEVVEEAEN [VII] | 41 | 6 | – | – | – | –
2 | KEVVEEAEN [VI] | 16 | 10 | +153% | +57% | – | –
3 | C[C@H](NC(=O)[C@@H](N)CCC(=O)O)C(=O)N[C@@H](CCC(=O)O)C(=O)N[C@@H](CC(N)=O)C(=O)O [V] (H-EAEN-OH) | 42 | 113 | +223% | +45% | +37% | –
4 | Ac-SDAAVDTSSEIT [IX] | 40 | 4 | -74% | -63% | -77% | –
5 | TSSEIT [II] | 29 | 80 | – | -53% | +30% | stimulation (+) / inhibition (-) of mixed lymphocyte culture ([2]; cell pair BA): -18%
6 | thymosin α1 (SDAAVDTSSEITTKDLKEKKEVVEEAEN; ends and bridges not checked; UniProt P06454 2-29, looked up) [Thymosin (synthetic), parent substance, totally synthetic thymosin α1, 28 amino acids, analytically pure, reference compound] | 100 | 1.6 | – | – | – | Relative number of E-rosettes (%) ([1]; 0.25 μg per culture): 39%; Relative number of E-rosettes (%) ([1]; 0.50 μg per culture): 100%; Relative number of E-rosettes (%) ([1]; 1.00 μg per culture): 64%; Relative number of E-rosettes (%) ([1]; 2.50 μg per culture): 57%; Relative number of E-rosettes (%) ([1]; 5.00 μg per culture): 33%; Stimulation (%) of allogenic mixed culture ([2]; cell pair AB, culture inhibited with 1 microgram α-amanitin per ml): +86%; Stimulation (%) of allogenic mixed culture ([2]; cell pair AB, culture not inhibited, stimulator cells blocked with mitomycin): +20%; Stimulation (%) of allogenic mixed culture ([2]; cell pair AD, culture inhibited with 1 microgram α-amanitin per ml): +37%; Stimulation (%) of allogenic mixed culture ([2]; cell pair AD, culture not inhibited): +4%; Stimulation (%) of allogenic mixed culture ([2]; cell pair BA, culture inhibited with 1 microgram α-amanitin per ml): +47%; Stimulation (%) of allogenic mixed culture ([2]; cell pair BA, culture not inhibited): +27%; Stimulation (%) of allogenic mixed culture ([2]; cell pair BD, culture inhibited with 1 microgram α-amanitin per ml): +51%; Stimulation (%) of allogenic mixed culture ([2]; cell pair BD, culture not inhibited): +45%; Stimulation (%) of allogenic mixed culture ([2]; cell pair DA, culture inhibited with 1 microgram α-amanitin per ml): +0%; Stimulation (%) of allogenic mixed culture ([2]; cell pair DA, culture not inhibited): +44%; Stimulation (%) of allogenic mixed culture ([2]; cell pair DB, culture inhibited with 1 microgram α-amanitin per ml): +1550%; Stimulation (%) of allogenic mixed culture ([2]; cell pair DB, culture not inhibited): +27%
7 | KDAAVD [Ia] | 93 | 16 | -8% | -73% | -31% | stimulation (+) / inhibition (-) of mixed lymphocyte culture ([2]; cell pair BA): -15%
